The first assay concerns the target full-length human PIKFYVE (N-terminal GST-fusion) (Homo sapiens (Human), UniProt Q9Y2I7, L932S/Q1183K/Q995L/S1033A/S696N/T998S). The assay can be described thus: PIKfyve biochemical assay (ADP-Glo Kinase assay, Carna Biosciences). The note with it: ADP-Glo, full-length human GST-PIKFYVE, 10 μM to 3 nM; read-out: hPIKfyve IC50.
Description: (§1) PIKfyve Biochemical Assay. The biochemical PIKfyve inhibition assays were run by Carna Biosciences according to proprietary methodology based on the Promega ADP-Glo™ Kinase assay. A full-length human PIKFYVE [1-2098(end) amino acids and S696N, L932S, Q995L, T998S, S1033A and Q1183K of the protein having the sequence set forth in NCBI Reference Sequence No. NP_055855.2] was expressed as N-terminal GST-fusion protein (265 kDa) using baculovirus expression system. GST-PIKFYVE was purified by using glutathione sepharose chromatography and used in an ADP-Glo™ Kinase assay (Promega). Reactions were set up by adding the test compound solution, substrate solution, ATP solution and kinase solution, each at 4× final concentrations. Reactions were prepared with assay buffer (50 mM MOPS, 1 mM DTT, pH7.2), mixed, and incubated in black 384 well polystyrene plates for 1 hour at room temperature. ADP-Glo™ reagent was then added for 40 minutes, followed by kinase detection reagent for an additional 40 minutes. The kinase activity was evaluated by detecting relative light units on a luminescence plate reader. Samples were run in duplicate from 10 μM to 3 nM. […] IC50 values were calculated from concentration vs % inhibition curves by fitting to a four-parameter logistic curve.
as §1, with “The” for “PIKfyve Biochemical Assay. The”, “accession number” for “the protein having the sequence set forth in NCBI Reference Sequence No.”, “curve. […]” for “curve.”
A general note: In ADP-Glo the light output rises with the ADP produced.
Sequence of full-length human PIKFYVE (N-terminal GST-fusion) (Q9Y2I7 whole entry S696N/L932S/Q995L/T998S/S1033A/Q1183K, the tested form may be a part): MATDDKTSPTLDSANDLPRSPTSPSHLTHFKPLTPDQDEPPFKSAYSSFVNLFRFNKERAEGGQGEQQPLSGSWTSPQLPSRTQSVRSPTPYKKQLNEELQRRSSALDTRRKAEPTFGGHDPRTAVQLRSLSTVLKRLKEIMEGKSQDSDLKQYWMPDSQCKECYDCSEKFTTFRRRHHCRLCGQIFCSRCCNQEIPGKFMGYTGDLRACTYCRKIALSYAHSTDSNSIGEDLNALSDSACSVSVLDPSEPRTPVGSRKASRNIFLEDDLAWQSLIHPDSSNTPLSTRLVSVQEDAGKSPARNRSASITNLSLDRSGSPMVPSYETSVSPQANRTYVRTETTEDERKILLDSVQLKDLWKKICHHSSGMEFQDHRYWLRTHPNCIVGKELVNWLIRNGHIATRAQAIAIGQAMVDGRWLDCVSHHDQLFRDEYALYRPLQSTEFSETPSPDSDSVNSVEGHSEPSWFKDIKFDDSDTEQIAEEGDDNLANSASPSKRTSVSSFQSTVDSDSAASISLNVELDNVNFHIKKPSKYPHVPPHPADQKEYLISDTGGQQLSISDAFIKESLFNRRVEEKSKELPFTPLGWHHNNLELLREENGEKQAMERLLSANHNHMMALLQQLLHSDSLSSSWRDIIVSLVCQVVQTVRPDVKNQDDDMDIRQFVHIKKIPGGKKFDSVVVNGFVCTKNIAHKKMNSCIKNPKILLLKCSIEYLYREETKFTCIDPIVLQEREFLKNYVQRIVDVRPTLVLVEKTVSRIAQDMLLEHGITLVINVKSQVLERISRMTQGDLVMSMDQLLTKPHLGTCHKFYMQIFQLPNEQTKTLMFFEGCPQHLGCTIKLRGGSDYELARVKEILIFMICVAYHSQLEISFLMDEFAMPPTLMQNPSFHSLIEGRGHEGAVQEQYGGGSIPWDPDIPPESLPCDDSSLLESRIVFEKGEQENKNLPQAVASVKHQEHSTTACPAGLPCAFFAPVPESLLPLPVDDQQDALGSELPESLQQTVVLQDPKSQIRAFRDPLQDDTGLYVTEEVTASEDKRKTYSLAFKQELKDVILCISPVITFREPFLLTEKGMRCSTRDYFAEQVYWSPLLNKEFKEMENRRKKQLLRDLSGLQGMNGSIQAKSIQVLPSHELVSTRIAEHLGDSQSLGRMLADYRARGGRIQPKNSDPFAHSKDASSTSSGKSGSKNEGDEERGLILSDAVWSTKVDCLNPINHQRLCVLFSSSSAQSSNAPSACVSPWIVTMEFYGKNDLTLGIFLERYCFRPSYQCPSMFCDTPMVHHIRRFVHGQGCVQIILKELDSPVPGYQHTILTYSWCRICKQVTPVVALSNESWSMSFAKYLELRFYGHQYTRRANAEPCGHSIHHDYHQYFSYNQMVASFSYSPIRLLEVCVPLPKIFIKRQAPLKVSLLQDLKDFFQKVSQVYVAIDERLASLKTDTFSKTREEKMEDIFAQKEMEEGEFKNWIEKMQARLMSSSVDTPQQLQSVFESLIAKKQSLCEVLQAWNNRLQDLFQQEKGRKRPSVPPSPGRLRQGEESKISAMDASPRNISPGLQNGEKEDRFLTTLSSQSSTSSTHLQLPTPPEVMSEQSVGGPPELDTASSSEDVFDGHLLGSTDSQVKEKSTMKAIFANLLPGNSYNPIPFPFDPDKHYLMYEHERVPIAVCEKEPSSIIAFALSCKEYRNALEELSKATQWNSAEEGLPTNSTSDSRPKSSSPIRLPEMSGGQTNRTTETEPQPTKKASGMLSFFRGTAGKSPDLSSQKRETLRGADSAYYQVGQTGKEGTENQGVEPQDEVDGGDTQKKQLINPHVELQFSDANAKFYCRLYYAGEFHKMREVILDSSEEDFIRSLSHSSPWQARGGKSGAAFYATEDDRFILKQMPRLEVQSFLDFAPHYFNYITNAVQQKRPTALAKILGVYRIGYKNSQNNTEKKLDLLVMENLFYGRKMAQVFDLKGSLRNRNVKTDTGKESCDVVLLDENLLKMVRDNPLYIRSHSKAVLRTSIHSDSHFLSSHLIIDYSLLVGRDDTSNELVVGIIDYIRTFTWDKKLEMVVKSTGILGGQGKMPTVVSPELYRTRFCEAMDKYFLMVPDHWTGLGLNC
With `c1ccc(-c2c[nH]c3c(-c4ccncc4)nc(N4CCOCC4)nc23)nc1` [Compound 136, 4-(7-(pyridin-2-yl)-4-(pyridin-4-yl)-6H-pyrrolo[3,2-d]pyrimidin-2-yl)morpholine], the IC50 is 10 to 100 nM. As to `CN1CCC(c2nc(N3CCOCC3)nc3c2CCN3c2cccnc2)CC1` [Compound 109, 4-(4-(1-methylpiperidin-4-yl)-7-(pyridin-3-yl)-6,7-dihydro-5H-pyrrolo[2,3-d]pyrimidin-2-yl)morpholine], the IC50 lay within 1000 to 10000 nM.

On to `CC(C)(C)OC(=O)N1CCC(c2nc(N3CCOCC3)nc3c2CCN3c2ccccc2)CC1` [Compound 110, tert-butyl 4-(2-morpholino-7-phenyl-6,7-dihydro-5H-pyrrolo[2,3-d]pyrimidin-4-yl)piperidine-1-carboxylate], for which the IC50 lay within 10 to 100 nM.

With `c1ccc(N2CCc3c(OCc4ccccn4)nc(N4CCOCC4)nc32)cc1` [Compound 24, 4-(7-phenyl-4-(pyridin-2-ylmethoxy)-6,7-dihydro-5H-pyrrolo[2,3-d]pyrimidin-2-yl)morpholine], the IC50 was 10 to 100 nM. As for `CN1CCCC(COc2nc(N3CCOCC3)nc3c2CCN3c2cncnc2)C1` (stereo not drawn) [Compound 16, 4-(4-((1-methylpiperidin-3-yl)methoxy)-7-(pyrimidin-5-yl)-6,7-dihydro-5H-pyrrolo[2,3-d]pyrimidin-2-yl)morpholine], the IC50 was in the range of 1000 to 10000 nM. As to `c1ccc(N2CCc3c(OCc4cccnn4)nc(N4CCOCC4)nc32)cc1` [Compound 27, 4-(7-phenyl-4-(pyridazin-3-ylmethoxy)-6,7-dihydro-5H-pyrrolo[2,3-d]pyrimidin-2-yl)morpholine], the IC50 was in the range of 10 to 100 nM.

On to `O=c1ccccn1-c1nc(N2CCOCC2)nc2c1CCN2c1cccnc1` [Compound 52, 1-(2-morpholino-7-(pyridin-3-yl)-6,7-dihydro-5H-pyrrolo[2,3-d]pyrimidin-4-yl)pyridin-2(1H)-one], for which the IC50 lay in the range of 1000 to 10000 nM. For the compound `CC(C)(C)OC(=O)N1CCC(c2nc(N3CCOCC3)nc3c2CCN3c2cccnc2)CC1` [Compound 107, tert-butyl 4-(2-morpholino-7-(pyridin-3-yl)-6,7-dihydro-5H-pyrrolo[2,3-d]pyrimidin-4-yl)piperidine-1-carboxylate], the 50% inhibitory concentration (IC50) is 100 to 1000 nM. Turning to `COc1cccc(C2CC2c2nc(N3CCOCC3)nc3c2CCN3c2cccnc2)c1` (stereo not drawn) [Compound 122, 4-(4-(2-(3-methoxyphenyl)cyclopropyl)-7-(pyridin-3-yl)-6,7-dihydro-5H-pyrrolo[2,3-d]pyrimidin-2-yl)morpholine], the IC50 was in the range of 100 to 1000 nM. For `CC(C)(C)OC(=O)N1CCC(COc2nc(N3CCOCC3)nc3c2CCN3c2cccnc2)C1` (stereo not drawn) [Compound 33, tert-butyl 3-(((2-morpholino-7-(pyridin-3-yl)-6,7-dihydro-4H-pyrrolo[2,3-d]pyrimidin-4-yl)oxy)methyl)pyrrolidine-1-carboxylate], the IC50 lay within 100 to 1000 nM.

`CC(C)(C)OC(=O)N1CCC(N2CCc3c(OCc4cccnc4)nc(N4CCOCC4)nc32)CC1` [Compound 5, tert-butyl 4-(2-morpholino-4-(pyridin-3-ylmethoxy)-5H-pyrrolo[2,3-d]pyrimidin-7(6H)-yl)piperidine-1-carboxylate]: the IC50 was more than 10000 nM. Same read-out and setting: the same measure for `c1ccc(N2CCc3c(Oc4ccccn4)nc(N4CCOCC4)nc32)cc1` [Compound 49, 4-(7-phenyl-4-(pyridin-2-yloxy)-6,7-dihydro-5H-pyrrolo[2,3-d]pyrimidin-2-yl)morpholine]: 10 to 100 nM.

Regarding `Fc1cccc(N2CCc3c(-c4ccncc4)nc(N4CCOCC4)nc32)c1` [Compound 104, 4-(7-(3-fluorophenyl)-4-(pyridin-4-yl)-6,7-dihydro-5H-pyrroolo[2,3-d]pyrimidin-2-yl)morpholine], the IC50 is less than 10 nM. As for `c1cncc(N2CCc3c(OCC4CNC4)nc(N4CCOCC4)nc32)c1` [Compound 38, 4-(4-(azetidin-3-ylmethoxy)-7-(pyridin-3-yl)-6,7-dihydro-5H-pyrrolo[2,3-d]pyrimidin-2-yl)morpholine], the IC50 fell in the range of 100 to 1000 nM. Regarding `CN1CCCC(c2nc(N3CCOCC3)nc3c2ncn3-c2cccnc2)C1` (stereo not drawn) [Compound 127, 4-(6-(1-methylpiperidin-3-yl)-9-(pyridin-3-yl)-9H-purin-2-yl)morpholine], the IC50 was more than 10000 nM. `c1cncc(N2CCc3c(OCC4CCNC4)nc(N4CCOCC4)nc32)c1` (stereo not drawn) [Compound 34, 4-(7-(pyridin-3-yl)-4-(pyrrolidin-3-ylmethoxy)-6,7-dihydro-5H-pyrrolo[2,3-d]pyrimidin-2-yl)morpholine]: the IC50 lay in the range of 100 to 1000 nM.

For the compound `c1ccc(N2CCc3c(OC4CCOC4)nc(N4CCOCC4)nc32)cc1` (stereo not drawn) [Compound 22, 4-(7-phenyl-4-((tetrahydrofuran-3-yl)oxy)-6,7-dihydro-5H-pyrrolo[2,3-d]pyrimidin-2-yl)morpholine], the IC50 was 100 to 1000 nM. For `c1cncc(N2CCc3c(-c4ccoc4)nc(N4CCOCC4)nc32)c1` [Compound 88, 4-(4-(furan-3-yl)-7-(pyridin-3-yl)-6,7-dihydro-6H-pyrrolo[2,3-d]pyrimidin-2-yl)morpholine], the IC50 was 10 to 100 nM. The same measure, in the same setting: the same measure for `COc1cccc(-c2c[nH]c3c(-c4ccncc4)nc(N4CCOCC4)nc23)n1` [Compound 139, 4-(7-(6-methoxypyridin-2-yl)-4-(pyridin-4-yl)-5H-pyrrolo[3,2-d]pyrimidin-2-yl)morpholine]: 10 to 100 nM; for `c1cncc(N2CCc3c(C4CCOC4)nc(N4CCOCC4)nc32)c1` (stereo not drawn) [Compound 89, 4-(7-(pyridin-3-yl)-4-(tetrahydrofuran-3-yl)-6,7-dihydro-6H-pyrrolo[2,3-d]pyrimidin-2-yl)morpholine]: 100 to 1000 nM; for “4-(4-((oxetan-3-yloxy)methyl)-7-(pyridin-3-yl)-6,7-dihydro-5H-pyrrolo[2,3-d]pyrimidin-2-yl)morpholine [Compound 65]”: 1000 to 10000 nM. As to `c1ccc(-n2ncc3c(N4CCOCC4)nc(OCc4cccnc4)nc32)cc1` [Compound 131, 4-(1-phenyl-6-(pyridin-3-ylmethoxy)-1H-pyrazolo[3,4-d]pyrimidin-4-yl)morpholine], the IC50 is 1000 to 10000 nM. Turning to `c1ccc(N2CCc3c(OCC4CCCO4)nc(N4CCOCC4)nc32)cc1` (stereo not drawn) [Compound 29, 4-(7-phenyl-4-((tetrahydrofuran-2-yl)methoxy)-6,7-dihydro-5H-pyrrolo[2,3-d]pyrimidin-2-yl)morpholine], the IC50 lay within 100 to 1000 nM. Take `N#Cc1cccc(N2CCc3c(OCc4cccnc4)nc(N4CCOCC4)nc32)c1` [Compound 4, 3-(2-morpholino-4-(pyridin-3-ylmethoxy)-5H-pyrrolo[2,3-d]pyrimidin-7(6H)-yl)benzonitrile]: the IC50 was 100 to 1000 nM. The same measure, in the same setting: the same measure for `CN1CCN(c2nc(N3CCOCC3)nc3c2CCN3c2cccnc2)CC1` [Compound 81, 4-(4-(4-methylpiperazin-1-yl)-7-(pyridin-3-yl)-6,7-dihydro-5H-pyrrolo[2,3-d]pyrimidin-2-yl)morpholine]: 1000 to 10000 nM; for `c1ccc(N2CCc3c(-c4cccnc4)nc(N4CCOCC4)nc32)cc1` [Compound 91, 4-(7-phenyl-4-(pyridin-3-yl)-6,7-dihydro-5H-pyrrolo[2,3-d]pyrimidin-2-yl)morpholine]: 10 to 100 nM.

Still in this assay, the particulars now being: values plotted in FIG. 7; read-out: PIKFYVE Biochemistry (IC50).
Take `c1ccc(-c2nc(-c3cc(N4CCOCC4)nc(OCc4ccncc4)n3)no2)cc1`: the IC50 is more than 10000 nM.

The term IC50 denotes the concentration needed to halve the response being measured.

These data come from patent US20250145642A1, “BICYCLIC HETEROARENES AND METHODS OF THEIR USE” (Kineta, Inc., priority 2021, published 2025).
